Measured values as given in patent publication EP4775580A1, “COMPOUND, PHARMACEUTICAL COMPOSITION COMPRISING SAME, AND USE THEREOF” (Euregen Biopharma Co., Ltd., priority 2023, dated 2025).
pIC50: −log10 of the molar value. Like-named read-outs stand apart in the source and are kept apart here.

How the values were obtained:
[1] = test system: MV-4-11 cells; experiment: Antiproliferative activity against MV-4-11 cells (CTG method, 72 h); assay type: cell-based; settings: Homo sapiens, MV4-11, 72 hours incubation, CellTiter-Glo
Excerpt: • 1. Experimental Principle: MV-4-11 is a human leukemia cell line harboring MLL translocation and expressing the MLL fusion protein MLL-AF4. […] Experimental Materials: CellTiter-Glo was purchased from Promega (Cat. #G7571); IMDM medium was purchased from Gibco (Cat. #12440061); fetal bovine serum was purchased from Excell (Cat. #FND500); dimethyl sulfoxide (DMSO) was purchased from Sigma (Cat. #D2650); 384-well cell culture plates were purchased from Corning (Cat. #3756); automated cell counter was obtained from Life Technologies (Model: Countess II); microplate reader was obtained from PerkinElmer (Model: EnVision Multilabel Reader). • 3. Experimental Methods: Cells in logarithmic growth phase were resuspended in growth medium (IMDM + 10% FBS) and diluted to the target density (50,000/mL). The cell suspension was seeded into 384-well plates at 50 µL per well and incubated overnight at 37°C in a 5% CO2 incubator.
Test compounds were dissolved in DMSO to prepare 10 mM stock solutions. The stock solutions were first diluted to 2 mmol/L with DMSO, followed by 3-fold serial dilutions to generate 10 concentrations. From each concentration, 5.5 µL was diluted with 94.5 µL growth medium. The diluted solutions were then added to the 384-well plates containing seeded cells at 5 µL per well.
Cells treated with test compounds were incubated at 37°C in a 5% CO2 incubator for 72 hours. The 384-well plates were equilibrated at room temperature, and 15 µL of CellTiter-Glo reagent was added to each well. The plates were mixed on a vortex mixer for 2 minutes and incubated at room temperature for 60 minutes. Luminescence values were read using the EnVision Multilabel Reader, and IC50 values were calculated using GraphPad Prism 5.0 software.

[2] = test system: OCI-AML-3 cells; experiment: Antiproliferative activity, CellTiter-Glo, 7 days (Test Example 2), OCI-AML-3; assay type: cell-based; settings: Homo sapiens, 168 h, 7 days incubation, read-out: OCI-AML3 IC50
Excerpt: [0134] 1. Experimental Principle: MV-4-11, Molm-13, and OCI-AML-3 cells are human hematologic tumor cell lines harboring the Menin-MLL fusion. HL-60 is a wild-type human hematologic tumor cell line without Menin-MLL fusion. […] 2. Experimental Materials: MV-4-11, Molm-13, OCI-AML-3, and HL-60 cells were all purchased from Cobioer; CellTiter-Glo® was purchased from Promega (Cat. #G7571); RPMI-1640 was purchased from Viva Cell (Cat. #C3010-0500); IMDM was purchased from Viva Cell (Cat. #C3040-0500); fetal bovine serum (FBS) was purchased from Biosera (Cat. #FB-1058/500); penicillin-streptomycin was purchased from BasalMedia (Cat. #S110JV); 0.25% Trypsin-EDTA was purchased from BasalMedia (Cat. #S310KJ); dimethyl sulfoxide (DMSO) was purchased from Sinopharm (Cat. #30072418); 96-well plates were purchased from Corning (Cat. #3610); incubator was obtained from PHCbi (Model: MCO-18AC); inverted microscope was obtained from Mingmei (Cat. #MI52-0); automated cell counter was obtained from BodBoge (Model: JSY-SC-031N); microplate reader was obtained from PerkinElmer (Model: Envision); data processing software: GraphPad Prism 8.0. 3. […] After incubation at room temperature for 10 minutes, luminescence values were read using the EnVision microplate reader, and IC50 values were calculated using GraphPad Prism 8.0 software. […]

[3] = Pharmacokinetics in mice after single IV and PO administration (LC-MS/MS); assay type: in vivo, male ICR mice; settings: ICR mice
Procedure: • 1. Objective: This study aimed to characterize the pharmacokinetic properties of selected compounds from the examples of the present invention in male ICR mice following single intravenous (IV) injection and oral (PO) administration using LC-MS/MS methodology. • 2. Experimental Materials: Test compounds were prepared according to the examples of the present invention; male ICR mice were obtained from Shanghai Jihui Laboratory Animal Breeding Co., Ltd. (License No. SCXK(Shanghai)2022-0009). • 3. Experimental Methods: Preparation of 0.5% methylcellulose (pH = 4.91): 5 g of methylcellulose was weighed and dissolved in 1000 mL of purified water, and the pH was adjusted to 4.91 with 100 mM citric acid.
Preparation of oral formulations: The required amount of test compound was weighed and dissolved in 0.5% methylcellulose (pH = 4.91) solution to obtain a suspension or solution at 3 mg/mL.
Preparation of intravenous injection formulations: The required amount of test compound was weighed and dissolved in 0.5 mL dimethyl sulfoxide to prepare a 12 mg/mL solution. To 0.25 mL of this solution, 0.5 mL of polyethylene glycol 15-hydroxystearate (Solutol) and 4.25 mL of normal saline were added to obtain a 0.6 mg/mL solution.
Dosing: Male ICR mice were fasted overnight prior to oral (PO) administration; fasting was not required for the single intravenous (IV) injection group. Food was provided 4 hours post-dosing.
Sample Collection: Blood was collected from the jugular vein or other suitable veins, with 0.03 mL collected at each time point. Samples were placed in tubes containing dipotassium ethylenediaminetetraacetate and kept on ice prior to centrifugation. Within 1 hour of blood collection, samples were centrifuged at 6800 × g for 6 minutes at 2-8°C and stored at -80°C. Blood sampling time points for intravenous administration were 0.083, 0.25, 0.5, 1, 2, 4, 8, 24, and 32 hours post-dosing. Blood sampling time points for oral administration were 0.25, 0.5, 1, 2, 4, 8, 24, and 32 hours post-dosing.

CCN(C(=O)c1cc(F)ccc1N1CCN([C@@H]2CCN([C@H](CCCN(C)CCOC)C(C)C)C2)c2ncncc21)C(C)C [Example 3]
pIC50 [1]: 7.64
pIC50 [2]: 6.99
PO F ([3]; PO 30 mg/kg vs IV 3 mg/kg): 25.6%
AUC(0-t) ([3]; mouse, in vivo, IV 3 mg/kg, read-out: IV AUC(0-t)): 429 ng·h/mL
clearance ([3]; mouse, in vivo, IV 3 mg/kg, read-out: IV CL): 104 mL/min/kg
Cmax ([3]; mouse, in vivo, IV 3 mg/kg, read-out: IV Cmax): 418 ng/mL
Vd ([3]; mouse, in vivo, IV 3 mg/kg, read-out: IV Vss): 65.1 L/kg
half-life ([3]; mouse, in vivo, IV 3 mg/kg, read-out: IV t1/2 (converted)): 655 min
AUC(0-t) ([3]; mouse, in vivo, PO 30 mg/kg, 0.5% methylcellulose (pH = 4.91), read-out: PO AUC(0-t)): 1100 ng·h/mL
Cmax ([3]; mouse, in vivo, PO 30 mg/kg, 0.5% methylcellulose (pH = 4.91), read-out: PO Cmax): 293 ng/mL
half-life ([3]; mouse, in vivo, PO 30 mg/kg, 0.5% methylcellulose (pH = 4.91), read-out: PO t1/2 (converted)): 389 min
